Where “and” joins values, the source holds several entries; their conditions need not be identical. Equal values may be shown once.

The record followed here is PMC7501296, “Rapid and direct control of target protein levels with VHL-recruiting dTAG molecules” (Nature Communications, 2020).

Common to all, as to assay type: cell-based
One assay concerns the target T1, FKBP12^F36V-KRAS^G12V (Homo sapiens, UniProt P01116+P62942, F37V/G12V).
T1 construct: KRAS G12V (fusion partner, same polypeptide); expressed in transfected cells
The assay is described as follows: Immunoblot of PATU-8902 FKBP12F36V-KRASG12V; KRAS-/- clone. The settings on record: pretreated 2 h prior to dTAGV-1 for 4 h. How it is done: (§1) PATU-8902 LACZ-FKBP12^F36V and FKBP12^F36V-KRAS^G12V; KRAS^−/− cells and 293T cells were lysed with RIPA buffer supplemented with cOmplete protease inhibitors (Roche), PhosSTOP phosphatase inhibitors (Roche), and 0.1% benzonase (Novagen). Proteins were separated using NuPAGE Bolt^TM Bis–Tris gels (Thermo Fisher Scientific) and transferred to nitrocellulose membranes, which were blocked with Odyssey Blocking Buffer (LI-COR) and incubated with primary antibodies overnight. Membranes were washed three times with TBS-T, incubated with the appropriate fluorescently labeled infrared secondary antibodies, washed again three times with TBS-T, and assessed using an Odyssey CLx Imager (LI-COR)[6],[15]. EWS502 cells were lysed with Cell Lysis Buffer (Cell Signaling Technology) supplemented with cOmplete protease inhibitors (Roche). Proteins were separated using SDS-PAGE gels and transferred to PVDF membranes, which were blocked with 5% milk in TBS-T and incubated with primary antibodies overnight. Membranes were washed five times with TBS-T, incubated with the appropriate horseradish peroxidase-conjugated secondary antibodies, washed again five times with TBS-T, and imaged. The following primary antibodies were employed in this study: HA (Cell Signaling Technology #3724 and #2367, dilution at 1:1000), phospho-ERK1/2 T202/Y204 (Cell Signaling Technology #4370, dilution at 1:1000), ERK1/2 (Cell Signaling Technology #4696, dilution at 1:1000), phospho-AKT S473 (Cell Signaling Technology #4060, dilution at 1:1000), AKT (Cell Signaling Technology #2920, dilution at 1:1000), FKBP12 (Abcam #ab24373, dilution at 1:1000), GFP (Cell Signaling Technology #2555, dilution at 1:1000), FLI (Abcam #ab15289, dilution at 1:2000), NKX2-2 (Abcam #ab187375, dilution at 1:1000), GAPDH (Cell Signaling Technology #2118, dilution at 1:3000), Vinculin (Cell Signaling Technology #13901, dilution at 1:3000), β-Actin (Cell Signaling Technology #58169, dilution at 1:3000), and α-Tubulin (Cell Signaling Technology #3873, dilution at 1:5000). Species-specific fluorescently labeled infrared secondary antibodies including IRDye 680LT anti-Mouse IgG (LI-COR #926-68020, dilution at 1:5000), IRDye 800CW anti-Mouse IgG (LI-COR #926-32210, dilution at 1:5000), IRDye 680LT anti-Rabbit IgG (LI-COR #926-68021, dilution at 1:5000), and IRDye 800CW anti-Rabbit IgG (LI-COR #926-32211, dilution at 1:5000) and peroxidase-linked secondary antibodies including anti-Mouse IgG (Thermo Fisher Scientific #45000680, dilution at 1:5000) and anti-Rabbit IgG (Thermo Fisher Scientific #45000682, dilution at 1:5000) were employed as appropriate.
On the technique in general: In western blotting, separated proteins are transferred to a membrane and probed.

Assay [1] concerns PATU-8902 LACZ-FKBP12^F36V clone. Nature of the assay: Antiproliferation, PATU-8902 LACZ-FKBP12F36V clone, 2D-monolayer (CellTiter-Glo). The essentials: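 Viability of cells grown as 2D-adherent monolayers was determined with the CellTiter-Glo luminescent reagent (Promega). Luminescence signals were read on either an Envision 2104 plate reader (PerkinElmer) or a Fluostar Omega Reader (BMG Labtech), and the resulting data were processed and analyzed in GraphPad PRISM v8 software.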
(In ATP-based viability assays light output follows the ATP content of the culture.)

Assay [2] has as its system EWS502 FKBP12^F36V-EWS/FLI; EWS/FLI^−/− cells. Nature of the assay: Relative growth of EWS502 FKBP12F36V-EWS/FLI; EWS/FLI-/- cells (CellTiter-Glo). The note with it: for Antiproliferation (relative growth): replicate values. How it is done: Cell viability was assayed in 2D-adherent or ultra-low adherent 3D-spheroids using CellTiter-Glo (Promega)[6],[15]. Luminescence was measured on an Envision 2104 plate reader (PerkinElmer) and Fluostar Omega Reader (BMG Labtech) and data was analyzed using GraphPad PRISM v8. Synergy assessments were performed using CellTiter-Glo (Promega) with the following modifications to the protocol described in the ref. [34]. In brief, EWS502 cells were plated at 1000 cells per well in 50 µL of appropriate media in 384-well white culture plates (Corning) allowed to adhere overnight, and 100 nL of compounds were added using a Janus Workstation pin tool (PerkinElmer) for 72 h. Cell viability was measured by addition of 10 µL of CellTiter-glo (Promega), followed by incubation for 15 minutes at room temperature. Luminescence was measured on an Envision 2104 plate reader (PerkinElmer) and data was analyzed using GraphPad PRISM v8.

A further assay deals with FKBP12^F36V-EWS/FLI. Nature of the assay: Immunoblot of EWS502 FKBP12F36V-EWS/FLI; EWS/FLI-/- cells. On the procedure:
To generate 293T^WT FKBP12^F36V-KRAS^G12V and 293T^VHL−/− FKBP12^F36V-KRAS^G12V cells, concentrated lentiviral supernatants[6] were applied to 293T^WT and 293T^VHL−/− cells[33] in the presence of 4 µg mL^−1 polybrene and transduced cell lines were selected with 2 µg mL^−1 puromycin. To generate EWS502 FKBP12^F36V-GFP cells, EWS502 cells were transduced with pLEX_305-dTAG-GFP lentiviral supernatant and selected with 1 µg mL^−1 puromycin. To generate EWS502 FKBP12^F36V-EWS/FLI; EWS/FLI^−/− cells, EWS502 cells were co-transduced with pLEX_305-dTAG-EWS/FLI and lentiCRISPR v2-Blast-sgFLI_Ex9 lentiviral supernatants. Cells were then selected with both 1 µg mL^−1 puromycin (pLEX_305-dTAG-EWS/FLI) and 5 µg mL^−1 blasticidin (lentiCRISPR v2-Blast-sgFLI_Ex9). Knockout of endogenous EWS/FLI and the expression of exogenous FKBP12^F36V-EWS/FLI were confirmed by immunoblot and pooled transduced cell populations were employed for this study. PATU-8902 LACZ-FKBP12^F36V and FKBP12^F36V-KRAS^G12V; KRAS^−/− clones were also employed in this study.
PATU-8902 LACZ-FKBP12^F36V and FKBP12^F36V-KRAS^G12V; KRAS^−/− cells and 293T cells were lysed with RIPA buffer supplemented with cOmplete protease inhibitors (Roche), PhosSTOP phosphatase inhibitors (Roche), and 0.1% benzonase (Novagen). Proteins were separated using NuPAGE Bolt^TM Bis–Tris gels (Thermo Fisher Scientific) and transferred to nitrocellulose membranes, which were blocked with Odyssey Blocking Buffer (LI-COR) and incubated with primary antibodies overnight. Membranes were washed three times with TBS-T, incubated with the appropriate fluorescently labeled infrared secondary antibodies, washed again three times with TBS-T, and assessed using an Odyssey CLx Imager (LI-COR)[6],[15]. EWS502 cells were lysed with Cell Lysis Buffer (Cell Signaling Technology) supplemented with cOmplete protease inhibitors (Roche). Proteins were separated using SDS-PAGE gels and transferred to PVDF membranes, which were blocked with 5% milk in TBS-T and incubated with primary antibodies overnight. Membranes were washed five times with TBS-T, incubated with the appropriate horseradish peroxidase-conjugated secondary antibodies, washed again five times with TBS-T, and imaged. […]

Assay [3] has as its system PATU-8902 FKBP12^F36V-KRAS^G12V; KRAS^-/- clone. The assay is described as follows: Antiproliferation, PATU-8902 FKBP12F36V-KRASG12V; KRAS-/- clone, 2D-monolayer (CellTiter-Glo).
The next assay deals with T2, CDK9 (Homo sapiens, UniProt P50750).
T2 construct: endogenous in cells; host or cells: PATU-8902 LACZ-FKBP12^F36V clone
The assay is described as follows: Immunoblot, co-treatment with THAL-SNS-032 and/or dTAGV-1 in PATU-8902 LACZ-FKBP12F36V clone. The note with it: co-treatment dTAGV-1 + THAL-SNS-032, 24 h. On the procedure: as §1, with “Species-specific fluorescently labeled infrared secondary antibodies including IRDye 680LT anti-Mouse IgG (LI-COR #926-68020, dilution at 1:5000), IRDye 800CW anti-Mouse IgG (LI-COR #926-32210, dilution at 1:5000), IRDye 680LT anti-Rabbit IgG (LI-COR #926-68021, dilution at 1:5000), and IRDye 800CW anti-Rabbit IgG (LI-COR #926-32211, dilution at 1:5000) and peroxidase-linked secondary antibodies including anti-Mouse IgG (Thermo Fisher Scientific #45000680, dilution at 1:5000) and anti-Rabbit IgG (Thermo Fisher Scientific #45000682, dilution at 1:5000) were employed as appropriate.” left out

T1 sequence (P62942+P01116 fused P62942:F37V/P01116:G12V): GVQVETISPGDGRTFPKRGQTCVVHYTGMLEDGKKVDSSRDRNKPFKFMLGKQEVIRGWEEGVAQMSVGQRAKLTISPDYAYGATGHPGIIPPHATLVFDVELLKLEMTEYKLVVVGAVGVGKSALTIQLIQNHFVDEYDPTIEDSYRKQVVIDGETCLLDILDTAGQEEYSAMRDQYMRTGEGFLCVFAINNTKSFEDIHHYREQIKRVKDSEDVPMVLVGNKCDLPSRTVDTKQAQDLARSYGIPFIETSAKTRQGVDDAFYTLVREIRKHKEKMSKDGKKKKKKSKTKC

As for `NS(=O)(=O)OC[C@@H]1C[C@@H](n2ccc3c(N[C@H]4CCc5ccccc54)ncnc32)C[C@@H]1O` [MLN4924], on FKBP12^F36V-KRAS^G12V, the “Effect of pre-treatment on dTAGV-1-induced KRASG12V degradation” value is given as “rescued”.

`CC(C)C[C@H](NC(=O)[C@H](CCc1ccccc1)NC(=O)CN1CCOCC1)C(=O)N[C@@H](Cc1ccccc1)C(=O)N[C@@H](CC(C)C)C(=O)[C@@]1(C)CO1` [carfilzomib]: the “Effect of pre-treatment on dTAGV-1-induced KRASG12V degradation” value on FKBP12^F36V-KRAS^G12V is “rescued”.

Regarding `CC[C@H](C(=O)N1CCCC[C@H]1C(=O)O[C@H](CCc1ccc(OC)c(OC)c1)c1ccccc1OCC(=O)NCCOCCOCCOCC(=O)N[C@H](C(=O)N1C[C@H](O)C[C@H]1C(=O)N[C@@H](C)c1ccc(-c2scnc2C)cc1)C(C)(C)C)c1cc(OC)c(OC)c(OC)c1` [dTAG-63], the DMSO-normalized antiproliferation in assay [1] (log10[compound] (M) -4.69897) is 13.2737 and 12.6329 and 14.1104 and 10.912; in assay [1] (log10[compound] (M) -5.19897), 7.875 and 6.856 and 8.909 and 8.0101; in assay [1] (log10[compound] (M) -5.69897) it was 78.4433 and 69.3624 and 75.8082 and 79.7492; in assay [1] (log10[compound] (M) -6.19897), 113.01 and 109.862 and 96.0186 and 107.676; in assay [1] (log10[compound] (M) -6.69897), 108.532 and 100.339 and 100.126 and 107.64; in assay [1] (log10[compound] (M) -7.19897) it was 112.463 and 103.538 and 107.565 and 99.0951. Also, the DMSO-normalized antiproliferation was 105.646 and 110.739 and 108.339 and 103.433 in assay [1] (log10[compound] (M) -7.69897); 104.397 and 99.4398 and 102.394 and 104.585 in assay [1] (log10[compound] (M) -8.19897); 100.586 and 98.6181 and 103.288 and 91.8912 in assay [1] (log10[compound] (M) -8.69897); 97.4681 and 95.2333 and 95.4033 and 78.5397 in assay [1] (log10[compound] (M) -9.19897); 1.902 and 1.7836 and 2.592 and 1.417 in assay [3] (log10[compound] (M) -4.69897); 1.019 and 0.7215 and 1.043 and 0.8704 in assay [3] (log10[compound] (M) -5.19897). The DMSO-normalized antiproliferation is 18.9261 and 16.9894 and 19.5961 and 18.1242 in assay [3] (log10[compound] (M) -5.69897); 26.0652 and 23.4484 and 26.4223 and 22.5834 in assay [3] (log10[compound] (M) -6.19897); 29.8671 and 30.9365 and 33.7587 and 28.015 in assay [3] (log10[compound] (M) -6.69897); 63.0328 and 57.9113 and 61.3608 and 60.3114 in assay [3] (log10[compound] (M) -7.19897); 91.5315 and 97.3637 and 98.717 and 90.5671 in assay [3] (log10[compound] (M) -7.69897); 103.715 and 106.791 and 102.663 and 104 in assay [3] (log10[compound] (M) -8.19897). The DMSO-normalized antiproliferation in assay [3] (log10[compound] (M) -8.69897) was 99.9165 and 93.5571 and 104.512 and 109.434; in assay [3] (log10[compound] (M) -9.19897) it was 108.333 and 105.196 and 111.04 and 104.691. Further, the “Antiproliferation (relative growth)” value is 1.033 and 1 and 1.041 and 1.01 and 1.018 and 1.028 and 1.023 and 0.847 in assay [2] (Time 0 days); 5.323 and 5.646 and 6.274 and 5.9 and 5.4745 and 5.572 and 6.329 and 5.374 in assay [2] (Time 3 days); 8.718 and 8.673 and 8.208 and 9.16 and 8.872 and 9.224 and 8.694 and 9.906 in assay [2] (Time 5 days); 8.087 and 8.192 and 8.728 and 8.891 and 8.43 and 7.949 and 9.536 and 9.221 in assay [2] (Time 7 days). In addition, the “Antiproliferative effects upon EWS/FLI degradation” value in assay [2] (longer time-points) is listed as “modest antiproliferative effects”. In the assay with FKBP12^F36V-EWS/FLI (EWS502 FKBP12F36V-EWS/FLI, EWS/FLI-/- cells), the “FKBP12F36V-EWS/FLI degradation, immunoblot” value is given as “marginal degradation”. In addition, the “NKX2-2 protein levels, immunoblot” value in the assay on FKBP12^F36V-EWS/FLI (relative to dTAGV-1) is recorded as “limited changes”.

Consider `CC(C)(C)c1cnc(CSc2cnc(NC(=O)C3CCN(CC(=O)NCCOCCOCCOCCNc4cccc5c4C(=O)N(C4CCC(=O)NC4=O)C5=O)CC3)s2)o1` (stereo not drawn) [THAL-SNS-032], for which, on CDK9, the “Degradation of both LACZ-FKBP12F36V and CDK9 on co-treatment” value is listed as “pronounced degradation”.
